Assays:
Type in all cases: cell-based
[1] = tested on: Bacteria mixture 1 (Pseudomonas genus); test: Single inoculation of paint with bacteria mixture 1, live bacteria count (CFU/g) over 28 days (example 1); settings: for Colony forming units (CFU)/g of paint after days [d]: Table 1, Paint 1
Description: (§1) Paints 1 to 3 were mixed and homogenized with various concentrations of the guanidinium salts to be tested.
(§2) The batches obtained of the paint thus prepared were inoculated repeatedly with a mixture of different wild-type bacterial strains that are of practical relevance with regard to contamination. These bacteria had previously been isolated from commercial emulsion paints containing conventional preservatives (bacteria mixture 1, Pseudomonas genus), which are microbially contaminated in practice, and commercial so-called preservative-free alkaline emulsion paints (bacteria mixture 2, alkaliphilic bacteria of the Nesterenkonia & Alkalibacterium genus), which are microbially contaminated in practice.
(§3) • Pseudomonas spp. (Pseudomonas oleovorans group) DSM 33933 • Pseudomonas aeruginosa DSM 33935 • Pseudomonas oleovorans DSM 33936 • Pseudomonas putida DSM 33937 • Pseudomonas aeruginosa DSM 33938
(§4) The inoculum was added to the respective sample in each inoculation at 2% (v/w) as a fresh cell suspension in a physiological saline solution (0.9% NaCl). The cell count of the added inoculum in example 1 was 10^5/ml, in examples 2 to 5 10^9/ml, and in example 6 10^6/ml, each in equal portions consisting of the individual bacterial strains. The cell suspension was produced by growing the individual bacteria at 30° C. for 24 h in liquid culture on a shaker. The medium used to grow the bacteria from bacteria mixture 1 was Müller-Hinton liquid medium. Bacteria from bacteria mixture 2 were grown in Müller-Hinton liquid medium that had been adjusted to pH 9.5-9.7 with an alkaline buffer solution beforehand. After growing, the individual liquid cultures were centrifuged, and the cells were resuspended in physiological saline solution. In order to adjust the mixture to the desired cell count, the individual bacteria suspensions, if necessary, were diluted accordingly before being combined with saline solution. The cell count of the inoculum was determined in each case by chamber counting.
In example 1, the samples were inoculated once with a bacteria suspension (bacteria mixture 1) with a cell count of 10^5/ml (2% v/w) and the growth thereof was monitored by determining the live bacteria count per g of paint (colony-forming units, CFU/g) in the samples over 28 days. The CFU/g was determined each time by taking an aliquot (1 g) from the previously homogenized sample and running a serial decadic dilution series in physiological saline solution (0.9% NaCl) by streaking on tryptic soy agar, followed by incubation of the agar plates at 30° C. for 48 h.
Inoculation 2% (w/v) with Bacteria Mixture 1, 10^5 CFU/ml

[2] = tested on: Bacteria mixture 1 (Pseudomonas genus); test: Repetitive stress test of paints with bacteria mixture 1, semiquantitative evaluation (examples 2 and 3); settings: table 3
Description: as §1, §2, §3, §4
In examples 2 to 6, what is called a repetitive stress test with bacteria was conducted by inoculating the samples at particular time intervals repeatedly with a bacteria suspension having a cell count of 10^9/ml (2% v/w) and monitoring the evolution of the bacteria by a semiquantitative evaluation method. After each inoculation, the samples were incubated at 30° C. for 6 days (bacteria mixture 1 and 3) or 7 and 14 days (bacteria mixture 2), and after these periods bacterial infestation was evaluated semiquantitatively in each case. For this purpose, an aliquot was taken from each sample after homogenization using a sterile plastic inoculation loop (10 μl) and streaked evenly on agar plates (bacteria mixture 1 and 3 on tryptic soy agar, bacteria mixture 2 on DSMZ 31 alkaline nutrient agar). The streaked agar plates were then incubated at 30° C. for 48 h (bacteria mixture 1 and 3) or 5 to 7 days (bacteria mixture 2). After incubation, the bacterial colonies grown on the agar plates were visually evaluated and quantified according to the following scheme:
A total of 3 inoculation cycles was performed in each repetitive stress test.
Inoculation 2% (w/v) with Bacteria Mixture 1, 10^9 CFU/ml
2% (w/v) Inoculation with Bacteria Mixture 1, […]

[3] = tested on: Bacteria mixture 3; test: Repetitive stress test of calcium carbonate slurry with bacteria mixture 3, semiquantitative evaluation (example 6); settings: table 6; slurry having a pH of pH 9.4, addition of 0.075% by weight
Description: The calcium carbonate slurry was stored at 60° C. for 3 days prior to addition of the guanidinium salts for heat sterilization. The slurry thus treated was then admixed and homogenized with different concentrations of guanidine salts. The slurry prepared in this way was inoculated repeatedly with bacteria strains of practical relevance (bacteria mixture 3).
• Alcaligenes faecalis NCIMB 13145 • Aeromonas hydrophila DSM 6173 • Escherichia coli DSM 13631 • Burkholderia cepacia DSM 9241 • Staphylococcus aureus DSM 799 • Pseudomonas aeruginosa DSM 50071 • Pseudomonas putida DSM 13624
The inoculum was added to the respective sample in each inoculation at 2% (v/w) as a fresh cell suspension in a physiological saline solution (0.9% NaCl). […] The cell count of the inoculum was determined in each case by chamber counting.
In examples 2 to 6, what is called a repetitive stress test with bacteria was conducted by inoculating the samples at particular time intervals repeatedly with a bacteria suspension having a cell count of 10^9/ml (2% v/w) and monitoring the evolution of the bacteria by a semiquantitative evaluation method. After each inoculation, the samples were incubated at 30° C. for 6 days (bacteria mixture 1 and 3) or 7 and 14 days (bacteria mixture 2), and after these periods bacterial infestation was evaluated semiquantitatively in each case. […]

N=C(N)N.N=C(N)N.O=C(O)O [guanidine carbonate]
Colony forming units (CFU)/g of paint after days [d] ([1]; +0.01% guanidine carbonate (67 ppm guanidine), pH 8.1, 0 d): 1.2 × 10^3 CFU/g | Colony forming units (CFU)/g of paint after days [d] ([1]; +0.01% guanidine carbonate (67 ppm guanidine), pH 8.1, 2 d): 3.2 × 10^3 CFU/g | Colony forming units (CFU)/g of paint after days [d] ([1]; +0.01% guanidine carbonate (67 ppm guanidine), pH 8.1, 5 d): 3.0 × 10^5 CFU/g | Colony forming units (CFU)/g of paint after days [d] ([1]; +0.01% guanidine carbonate (67 ppm guanidine), pH 8.1, 28 d): 2.8 × 10^6 CFU/g | Colony forming units (CFU)/g of paint after days [d] ([1]; +0.025% guanidine carbonate (164 ppm guanidine), pH 8.3, 0 d): 1.2 × 10^3 CFU/g | Colony forming units (CFU)/g of paint after days [d] ([1]; +0.025% guanidine carbonate (164 ppm guanidine), pH 8.3, 2 d): 1.1 × 10^3 CFU/g | Colony forming units (CFU)/g of paint after days [d] ([1]; +0.025% guanidine carbonate (164 ppm guanidine), pH 8.3, 5 d): 1.0 × 10^5 CFU/g | Colony forming units (CFU)/g of paint after days [d] ([1]; +0.025% guanidine carbonate (164 ppm guanidine), pH 8.3, 28 d): 2.3 × 10^6 CFU/g | Colony forming units (CFU)/g of paint after days [d] ([1]; +0.05% guanidine carbonate (328 ppm guanidine), pH 8.5, 0 d): 9.0 × 10^2 CFU/g | Colony forming units (CFU)/g of paint after days [d] ([1]; +0.05% guanidine carbonate (328 ppm guanidine), pH 8.5, 2 d): <5 CFU/g | Colony forming units (CFU)/g of paint after days [d] ([1]; +0.05% guanidine carbonate (328 ppm guanidine), pH 8.5, 5 d): <5 CFU/g | Colony forming units (CFU)/g of paint after days [d] ([1]; +0.05% guanidine carbonate (328 ppm guanidine), pH 8.5, 28 d): <5 CFU/g | Colony forming units (CFU)/g of paint after days [d] ([1]; +0.075% guanidine carbonate (492 ppm guanidine), pH 8.7, 0 d): 1.1 × 10^3 CFU/g | Colony forming units (CFU)/g of paint after days [d] ([1]; +0.075% guanidine carbonate (492 ppm guanidine), pH 8.7, 2 d): <5 CFU/g | Colony forming units (CFU)/g of paint after days [d] ([1]; +0.075% guanidine carbonate (492 ppm guanidine), pH 8.7, 5 d): <5 CFU/g | Colony forming units (CFU)/g of paint after days [d] ([1]; +0.075% guanidine carbonate (492 ppm guanidine), pH 8.7, 28 d): <5 CFU/g | Colony forming units (CFU)/g of paint after days [d] ([1]; +0.1% guanidine carbonate (656 ppm guanidine), pH 9.0, 0 d): 1.2 × 10^3 CFU/g | Colony forming units (CFU)/g of paint after days [d] ([1]; +0.1% guanidine carbonate (656 ppm guanidine), pH 9.0, 2 d): <5 CFU/g | Colony forming units (CFU)/g of paint after days [d] ([1]; +0.1% guanidine carbonate (656 ppm guanidine), pH 9.0, 5 d): <5 CFU/g | Colony forming units (CFU)/g of paint after days [d] ([1]; +0.1% guanidine carbonate (656 ppm guanidine), pH 9.0, 28 d): <5 CFU/g | Stabilization of the paint against microbial infestation ([1]; table 1, addition of 0.05% by weight to a paint having a pH of greater than or equal to pH 8.5): distinct stabilization | Stabilization of the paint against microbial infestation ([2]; paint 1, pH of pH 9.4, addition of 0.15% by weight): distinct stabilization | Stabilization of the paint against microbial infestation ([2]; paint 2, pH of pH 9.1, addition of 0.175% by weight): distinct stabilization | Stabilization of the slurry against microbial infestation [3]: distinct stabilization

Reference: US20260265538A1, “Aqueous Industrial Product Stabilized Against Microbial Contamination” (Thor GmbH, priority 2023, published 2026)
